Format in all cases: in vivo
For data set [1], the system named is Mäuse. Description: Kalziumchlorid arrhythmia model, LD50 of Kalziumchlorid. The following applies: Kalziumchlorid i.v. combined with compound 50 mg/kg. How it is done: Die antiarrhythmischen Eigenschaften der erfindungsgemässen Verbindung wurden auch am Modell der Kalziumchloridarrhythmie untersucht. Der Mäusengruppe (I0 Gruppe) wurde einmalig die Kalziumchloridlösung intravenös im einzelnen und in Kombination mit γ -Amino-β -phenylbuttersäurehydrochlorid eingeführt. Die Dosis der letzteren betrug 50 mg/kg. Es wurde LD₅₀ für Kalziumchlorid bestimmt.

The subject of data set [2] is Mäuse. Put plainly: Anticonvulsant effect against Pikrotoxin, Bicucullin, Korazol, Thiosemikarbazid. From the text:
Ausserdem wurde die krampflösende Wirkung der neuen Verbindung untersucht. Die Untersuchung wurde an männlichen weissen Mäusen bei der Einführung von Pikrotoxin, Bicucullin, Korazol, Thiosemikarbazid durchgeführt.

In data set [3] the test system is Mäuse. Description: Phenamin-induced hypermotility in actometer. Here is the method:
Eis wurde die Wirkung der beanspruchten Verbindung auf den durch Phenamin ausgelöston Effekt der Veränderung der Hypermotorik untersucht. Phenamin wurde den Mäusen intraperitoneal in Dosen von 3 und 5 mg/kg I0 Minuten nach der enteralen oder intraperitonealen Einführung der beanspruchten Verbindung und des Pyrazetams eingeführt. Die Tiere wurden in der Kammer des photoelektrischen Aktometers untergebracht. Die motorische Aktivität wurde nach der Zahl der Impulse innerhalb von 60 Minuten bestimmt. Die Angaben sind in der Tabelle 6 angeführt.

The test system of data set [4] is Mäuse. Put plainly: Hypoxia in hermetically closed vessel, survival. Conditions: closed vessel 80 cm³. The source says: Nach der zweiten Methode wurden die Mäuse in einem hermetisch verschlossenen Gefäss von 80 cm³ Inhalt untergebracht, dabei wurde die Luft nicht abgesaugt, und es wurden keine CO₂-Sorptionsmittel zugegeben. Die Prüfverbindungen wurden I Stunde vor dem Beginn des Versuchs intraperitoneal eingeführt (siehe Tabelle II).

Data set [5] concerns Mäuse. Description: Hemic hypoxia by intraperitoneal Natriumnitrit, survival. The following applies: Natriumnitrit 200 mg/kg i.p. 15 min after compound. Here is the method: Die gemische Hypoxie wurde durch die intraperitoneale und subkutane Verabreichung von Natriumnitrit in einer Dosis von 200 mg/kg den Gruppen zu I0 […] I5 min nach der Einführung der Prüfverbindungen erzeugt. Die Angaben sind in der Tabelle I2 (bei der intraperitonealen Einführung von Natriumnitrit) und Tabelle I3 (bei der subkutanen Einführung von Natriumnitrit) angeführt.

The next data set deals with Ratten. Put plainly: Acute toxicity, rats. Conditions: intraperitoneal. Here is the method:
Die akute Toxizität der beanspruchten Verbindung wurde an Mäusen und Ratten (die Gruppe aus 9 bis I2 Tieren) bei der intravenösen, intraperitonealen Einführung der beanspruchten Verbindung sowie bei deren Einführung in den Magen bestimmt.
Es wurden der letale Ausgang, der Allgemeinzustand, die Vergiftungssymptome registriert. LD₅₀ wurde nach der Methode von Lichtfield und Wilcoxon bestimmt. LD₅₀ der neuen Verbindung beträgt für Mäuse bei der intravenösen Einführung 580 mg/kg, bei der intraperitonealen Einführung I450 mg/kg, bei der Einführung in den Magen 4600 mg/kg; für Ratten bei der intraperitonealen Einführung beträgt LD₅₀ 883 mg/kg, bei der Einführung in den Magen - über I500 mg/kg.

Setting [6] is: male white mice, convulsants Pikrotoxin, Bicucullin, Korazol, Thiosemikarbazid.

Where a name gives a salt, the structure may show the parent alone.

In the case of `NCC(CC(=O)O)c1ccccc1` (stereo not drawn) [γ-Amino-β-phenylbutter-säurehydrochlorid, γ -Amino- β -phenylbuttersäurehydrochlorid, reference compound], the “Einfluss auf LD₅₀ von Kalziumchlorid” value with Mäuse [1] is “keinen Einfluss”.

Take “γ -Amino- β -phenylbuttersäureorotat [Erfindungsgemässe Verbindung]”: the “krampflösende Wirksamkeit” value in the data set with Mäuse [2] (Dosen von 50 bis 200 mg/kg) is “keine ausgeprägte krampflösende Wirksamkeit”. Moreover, the “Anteil von Tieren, bei denen der Krampf beobachtet wurde” value in the data set with Mäuse [2] (setting [6]) is on record as “verringert nicht”. Also, in the data set with Mäuse [2] (setting [6]), the Krampflatenzzeit result is “verlängert sicher”. In addition, the “Anzahl der Impulse im Aktometer innerhalb von 60 min” value turned out to be 1884±111 in the data set on Mäuse [3] (50 mg/kg + Phenamin 5 mg/kg i.p. 10 min later), 1125±141 in the data set with Mäuse [3] (75 mg/kg + Phenamin 5 mg/kg i.p. 10 min later), 812±62 with Mäuse [3] (100 mg/kg + Phenamin 5 mg/kg i.p. 10 min later) and 811±98 with Mäuse [3] (150 mg/kg + Phenamin 5 mg/kg i.p. 10 min later). Besides, the Überlebensdauer is given as 10,8±1,2 min with Mäuse [4] (50,0 mg/kg i.p. 1 h before); 15,2±1,4 min in the data set on Mäuse [4] (100,0 mg/kg i.p. 1 h before); 27,6±2,6 min in the data set on Mäuse [4] (200,0 mg/kg i.p. 1 h before); 33,8±1,2 min in the data set on Mäuse [5] (50,0 mg/kg); 53,1±4,1 min in the data set with Mäuse [5] (100,0 mg/kg); 46,8±2,7 min in the data set on Mäuse [5] (200,0 mg/kg). In the data set on Ratten, this compound yielded an LD₅₀ of 883 mg/kg.
